Reference: patent US10370387B2, “Tricyclic fused thiophene derivatives as JAK inhibitors” (Incyte Corporation, priority 2012, dated 2019)
pIC50: −log10 of the molar value.

Experiments:
Assay type in all cases: biochemical
human JAK2 = human JAK2 (Homo sapiens (Human), UniProt O60674); assay: In vitro JAK kinase assay (HTRF, phosphorylation of biotinylated peptide), JAK2; conditions: 1 mM ATP
Protocol: Compounds herein were tested for inhibitory activity of JAK targets according to the following in vitro assay described in Park et al., Analytical Biochemistry 1999, 269, 94-104. The catalytic domains of human JAK1 (a.a. 837-1142), JAK2 (a.a. 828-1132) and JAK3 (a.a. 781-1124) were expressed using baculovirus in insect cells and purified. The catalytic activity of JAK1, JAK2 or JAK3 was assayed by measuring the phosphorylation of a biotinylated peptide. The phosphorylated peptide was detected by homogenous time resolved fluorescence (HTRF). IC50s of compounds were measured for each kinase in the 40 μL reactions that contain the enzyme, ATP and 500 nM peptide in 50 mM Tris (pH 7.8) buffer with 100 mM NaCl, 5 mM DTT, and 0.1 mg/mL (0.01%) BSA. For the 1 mM IC50 measurements, ATP concentration in the reactions was 1 mM. Reactions were carried out at room temperature for 1 hour and then stopped with 20 μL 45 mM EDTA, 300 nM SA-APC, 6 nM Eu-Py20 in assay buffer (Perkin Elmer, Boston, Mass.). Binding to the Europium labeled antibody took place for 40 minutes and HTRF signal was measured on a PHERA star plate reader (BMG, Cary, N.C.). The Example compounds were each tested in the Example A assay (see Table 1 for data for the compounds of the examples as tested by the assay of Example A at 1 mM ATP).

human JAK1 [1] = assay: In vitro JAK kinase assay (HTRF, phosphorylation of biotinylated peptide), JAK1; conditions: ratio of JAK2 IC50 to JAK1 IC50, 1 mM ATP
Outline: (§1)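 Baculovirus-expressed catalytic domains (JAK1 a.a. 837-1142, JAK2 a.a. 828-1132) phosphorylate 500 nM biotinylated peptide at 1 mM ATP, Tris pH 7.8, 1 h at room temperature. EDTA stop and HTRF detection with Eu-Py20/SA-APC; IC50 values derived.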

human JAK1 [2] = biological target: human JAK1 (Homo sapiens, UniProt P23458); assay: as above; conditions: 1 mM ATP
Outline: as §1

human JAK2, sequence (O60674 828-1132): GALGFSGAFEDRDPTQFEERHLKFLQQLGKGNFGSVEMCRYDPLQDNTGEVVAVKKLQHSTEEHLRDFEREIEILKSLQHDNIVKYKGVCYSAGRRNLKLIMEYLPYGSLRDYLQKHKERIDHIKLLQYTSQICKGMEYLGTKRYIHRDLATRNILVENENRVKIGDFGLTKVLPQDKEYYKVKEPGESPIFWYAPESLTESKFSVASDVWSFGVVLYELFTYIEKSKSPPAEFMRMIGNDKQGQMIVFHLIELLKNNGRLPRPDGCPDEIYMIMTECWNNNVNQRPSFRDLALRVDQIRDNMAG

Row | pIC50 (human JAK2) | pIC50 (human JAK1 [2]) | Molecule | JAK2/JAK1 (human JAK1 [1])
1 | ≥ 6.00 | ≥ 7.00 | Cc1nn2cnc3ccsc3c2c1-c1ccc(CC#N)cc1 [Example 46, [4-(8-Methylpyrazolo[1,5-c]thieno[2,3-e]pyrimidin-9-yl)phenyl]acetonitrile] | >3
2 |  |  | ((1R,2S,4S)-2-Hydroxy-4-{2-[(1R)-1-hydroxyethyl]-1H-imidazo[4,5-d]thieno[3,2-b]pyridin-1-yl}cyclohexyl)acetonitrile trifluoacetate and ((1S,2R,4R)-2-hydroxy-4-{2-[(1R)-1-hydroxyethyl]-1H-imidazo[4,5-d]thieno[3,2-b]pyridin-1-yl}cyclohexyl)acetonitrile trifluoacetate [37 (second peak)] | >10
3 |  |  | [(1R,2S,4S)-4-(2-Ethyl-1H-imidazo[4,5-d]thieno[3,2-b]pyridin-1-yl)-2-hydroxycyclohexyl]acetonitrile and [(1S,2R,4R)-4-(2-ethyl-1H-imidazo[4,5-d]thieno[3,2-b]pyridin-1-yl)-2-hydroxycyclohexyl]acetonitrile [40 (first peak)] | >10
4 |  |  | [(1R,2S,4S)-4-(2-Methyl-1H-imidazo[4,5-d]thieno[3,2-b]pyridin-1-yl)-2-hydroxycyclohexyl]acetonitrile and [(1S,2R,4R)-4-(2-methyl-1H-imidazo[4,5-d]thieno[3,2-b]pyridin-1-yl)-2-hydroxycyclohexyl]acetonitrile [41 (first peak)] | >10
